# Laboratory results taken from US20140099257A1, “Androgen Suppression, Prostate-Specific Membrane Antigen and the Concept of Conditionally Enhanced Vulnerability” (CORNELL UNIVERSITY, priority 2012, published 2014).
# Tested on: AR
# Assay: Silencing of AR with siRNA in prostate cancer cell lines; AR, PSMA expression (FACS, western blot) and PSA secretion
# Assay type: cell-based, human
# Details: FACS analysis of LNCaP, MDA-Pca-2b and LAPC-4 cells (FIG. 6)
# Protocol: For western blots, cells were lysed with Cell Lysis Buffer (Cell Signaling Technology, Danvers, Mass.) containing 1 mM phenylmethylsulphonyl fluoride (EMD Chemicals, Gibbstown, N.J.). Equal amounts of protein were applied in each well on a 10% Tris-HCl gel (Bio-Rad Laboratories, Hercules, Calif.). The proteins were transferred onto Immobilon-P Membranes (Millipore, Billerica, Mass.), after which the filters were probed with the following reagents: murine anti-PSMA mAb J591, murine mAb anti-AR (AR441), rabbit anti-human AR, murine mAb anti-human beta-actin, and/or goat polyclonal anti-GAPDH. For quantitative western blots, the Li-cor Odyssey Infrared Imaging System (Lincoln, Nebr.) was used. With this system, two different proteins of the same molecular weight (e.g., PSMA and AR) can be detected simultaneously and quantified on the same blot using two different antibodies from two different species (mouse and rabbit) followed by detection with two IRDye labeled secondary antibodies. […] After washing, the membranes were scanned and the bands were quantified with the Odyssey Infrared Imaging System.
# Fluorescence-activated cell sorting (FACS) analysis was also employed in these examples0. […]
substance,measurement,value
non-targeted-siRNA: non-targeting control siRNA 5′-CCUACGCCACCAAUUUCGU-3′ (Dharmacon) (chemistry not given here),AR expression,did not affect expression
same,PSMA expression,did not affect expression
